The values below come from PubChem BioAssay AID330 (DTP/NCI, 2004).

This assay has as its system P388 leukemia ip, CD2F1 mice, survival T/C. In words: NCI In Vivo Anticancer Drug Screen. Data for tumor model P388 Leukemia (intraperitoneal) in CD2F1 (CDF1) mice. Conditions: endpoint: median survival time, higher = longer survival. Put shortly: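 Mice carrying the transplanted tumor received test compound or vehicle. Survival was recorded in each group, and the value is the treated-group measurement divided by that of the vehicle-treated control group.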

Setting [1] is: dose: 50.0 mg/kg/injection, schedule: Q01DX005 (ip), vehicle: saline with Tween-80.
[2] abbreviates: dose: 100.0 mg/kg/injection, schedule: Q01DX005 (ip), vehicle: saline with Tween-80.
[3] abbreviates: dose: 200.0 mg/kg/injection, schedule: Q01DX005 (ip), vehicle: saline with Tween-80.
Setting [4] is: dose: 50.0 mg/kg/injection, schedule: Q01DX005 (ip), vehicle: Klucel (hydroxypropylcellulose) (HPC).
The mark [5] stands for this setting: dose: 100.0 mg/kg/injection, schedule: Q01DX005 (ip), vehicle: Klucel (hydroxypropylcellulose) (HPC).
The mark [6] stands for this setting: dose: 200.0 mg/kg/injection, schedule: Q01DX005 (ip), vehicle: Klucel (hydroxypropylcellulose) (HPC).
Setting [7] is: dose: 50.0 mg/kg/injection, schedule: Q01DX009 (ip), vehicle: saline with Tween-80.
[8] abbreviates: dose: 12.5 mg/kg/injection, schedule: Q01DX009 (ip), vehicle: saline with Tween-80.
[9] abbreviates: dose: 25.0 mg/kg/injection, schedule: Q01DX009 (ip), vehicle: saline with Tween-80.
Setting [10] is: dose: 100.0 mg/kg/injection, schedule: Q01DX009 (ip), vehicle: saline sonified.
The mark [11] stands for this setting: dose: 100.0 mg/kg/injection, schedule: Q04DX003 (ip), vehicle: saline.
The mark [12] stands for this setting: dose: 100.0 mg/kg/injection, schedule: Q04DX002 (ip), vehicle: Klucel (hydroxypropylcellulose) (HPC).
[13] abbreviates: dose: 200.0 mg/kg/injection, schedule: Q04DX002 (ip), vehicle: Klucel (hydroxypropylcellulose) (HPC).
Where [14] appears, read: dose: 400.0 mg/kg/injection, schedule: Q04DX002 (ip), vehicle: Klucel (hydroxypropylcellulose) (HPC).

The structures appear in SMILES notation. Values joined by “and” are separate entries in the source; they are usually repeats but may differ in a detail not shown here. Identical values can stand only once. Toxic doses and inconclusive results are not listed. Square brackets hold non-standard residues; d marks the D form. Peptide text beside a SMILES is read from it. Tyr(3-NO2) = N[CH](Cc1ccc(O)c([N+](=O)[O-])c1)C(=O)O

Take `CC(C)=CC(C(=O)C1CC1)C(CC(=O)C1CC1)C(C)C` (stereo unspecified): the T/C is 99 % of control (dose: 25.0 mg/kg/injection, schedule: Q01DX005 (ip), vehicle: saline with Tween-80); 92 % of control under setting [1]; 92 % of control under setting [2].
`CS(=O)(=O)CC(=N\O)/C(CS(C)(=O)=O)=N/O`: the T/C was 103 % of control (dose: 60.0 mg/kg/injection, schedule: Q01DX005 (ip), vehicle: saline); 94 % of control (dose: 120.0 mg/kg/injection, schedule: Q01DX005 (ip), vehicle: saline); 103 % of control (dose: 240.0 mg/kg/injection, schedule: Q01DX005 (ip), vehicle: saline).
For `c1cncc(-c2c3ccccc3cc3ccc4ccccc4c23)c1`, the T/C runs as follows: under setting [1], 104 % of control; under setting [2], 103 % of control; under setting [3], 100 % of control.
In the same order, the values of `CCCCCN(CCCCC)CC(=O)O[C@H]1C[C@H]2CC[C@@]1(C)C2(C)C` are 103 % of control, 105 % of control and 107 % of control.
Consider `NC(=O)C(Cc1ccc(O)c([N+](=O)[O-])c1)NC(=O)C(N)Cc1ccccc1` (stereo unspecified) (H-Phe-[Tyr(3-NO2)]-NH2; configuration not given here), for which the T/C is 103 % of control under setting [4], 96 % of control under setting [5] and 96 % of control under setting [6].
With `CCCCCc1ccccc1O`, the T/C by setting is: under setting [7], 100 % of control; (dose: 100.0 mg/kg/injection, schedule: Q01DX009 (ip), vehicle: saline with Tween-80) 95 % of control.
With `O=S1(=O)CCC(c2ccccc2)C1` (stereo unspecified), the T/C was 100 % of control under setting [8], 105 % of control under setting [9] and 97 % of control under setting [7].
As to `O=C1N(c2ccccc2)N=C2CCCCCCCCCCC12O` (stereo unspecified), the T/C runs as follows: under setting [4], 93 % of control; under setting [5], 97 % of control; under setting [6], 94 % of control.
Regarding `C[n+]1cccc(NC(=O)c2ccccc2)c1`, the T/C was 102 % of control (dose: 7.5 mg/kg/injection, schedule: Q01DX005 (ip), vehicle: saline with Tween-80); 99 % of control (dose: 15.0 mg/kg/injection, schedule: Q01DX005 (ip), vehicle: saline with Tween-80); 113 % of control (dose: 30.0 mg/kg/injection, schedule: Q01DX005 (ip), vehicle: saline with Tween-80).
For `O=C1Nc2cnc(Cl)nc2Nc2ccccc21`, the T/C by setting is: under setting [4], 99 % of control; under setting [5], 91 % of control; under setting [6], 101 % of control.
Regarding `O=C1CCC2(CC1C1C=CCC1)OCCO2` (stereo unspecified), the T/C runs as follows: under setting [10], 100 % of control; (dose: 200.0 mg/kg/injection, schedule: Q01DX009 (ip), vehicle: saline sonified) 116 % of control; (dose: 400.0 mg/kg/injection, schedule: Q01DX009 (ip), vehicle: saline sonified) 100 % of control.
Regarding `O=C(O)C1C2OC2C2OC2C1C(=O)O` (stereo unspecified), the T/C (dose: 25.0 mg/kg/injection, schedule: Q01DX001 (ip), vehicle: Klucel (hydroxypropylcellulose) (HPC)) is 89 % of control; the T/C (dose: 50.0 mg/kg/injection, schedule: Q01DX001 (ip), vehicle: Klucel (hydroxypropylcellulose) (HPC)) is 92 % of control; the T/C (dose: 100.0 mg/kg/injection, schedule: Q01DX001 (ip), vehicle: Klucel (hydroxypropylcellulose) (HPC)) was 88 % of control.
Regarding `CCOCC(=O)[C@]1(O)Cc2c(O)c3c(c(O)c2[C@@H](OC2CC(N)C(O)C(C)O2)C1)C(=O)c1c(OC)cccc1C3=O` (stereo partly specified), the T/C is 153 % of control (dose: 1.56 mg/kg/injection, schedule: Q01DX009 (ip), vehicle: water); 158 % of control and 163 % of control (dose: 3.13 mg/kg/injection, schedule: Q01DX009 (ip), vehicle: water).
For `CCOCC(=O)NC1Cc2cc(OC)c(OC)cc2C1O` (stereo unspecified), the T/C runs as follows: (dose: 60.0 mg/kg/injection, schedule: Q01DX005 (ip), vehicle: saline with Tween-80) 100 % of control; (dose: 120.0 mg/kg/injection, schedule: Q01DX005 (ip), vehicle: saline with Tween-80) 101 % of control; (dose: 240.0 mg/kg/injection, schedule: Q01DX005 (ip), vehicle: saline with Tween-80) 100 % of control.
`O=c1c2ccccc2cnn1CO`: the T/C is 114 % of control under setting [11] and 119 % of control (dose: 200.0 mg/kg/injection, schedule: Q04DX003 (ip), vehicle: saline).
As for `c1ccc2c(c1)nc1snc(-n3ccnc3)n12`, the T/C is, setting by setting: (dose: 50.0 mg/kg/injection, schedule: Q04DX003 (ip), vehicle: saline with Tween-80) 103 % of control; (dose: 100.0 mg/kg/injection, schedule: Q04DX003 (ip), vehicle: saline with Tween-80) 111 % of control; (dose: 200.0 mg/kg/injection, schedule: Q04DX003 (ip), vehicle: saline with Tween-80) 90 % of control.
In the case of `CC1(C)N=C(N)N=C(N)N1c1ccc(OCC(=O)N2CCOCC2)cc1`, the T/C is 100 % of control (dose: 50.0 mg/kg/injection, schedule: Q04DX003 (ip), vehicle: saline); 110 % of control (dose: 66.0 mg/kg/injection, schedule: Q01DX009 (ip), vehicle: saline sonified); 120 % of control under setting [10]; 95 % of control under setting [11].
As to `NC(N)=NS(=O)(=O)c1ccc(N=Cc2c3ccccc3nc3ccccc23)cc1`, the T/C reads like this: (dose: 12.5 mg/kg/injection, schedule: Q04DX002 (ip), vehicle: Klucel (hydroxypropylcellulose) (HPC)) 99 % of control; (dose: 25.0 mg/kg/injection, schedule: Q04DX002 (ip), vehicle: Klucel (hydroxypropylcellulose) (HPC)) 94 % of control; (dose: 50.0 mg/kg/injection, schedule: Q04DX002 (ip), vehicle: Klucel (hydroxypropylcellulose) (HPC)) 96 % of control; under setting [12], 96 % of control; under setting [13], 92 % of control; under setting [14], 96 % of control.
On to `Nc1cc(Cl)c(Cl)cc1Cl`, for which the T/C is 100 % of control under setting [8], 95 % of control under setting [9] and 90 % of control under setting [7].
For `N#CCOc1ccccc1`, the T/C was 101 % of control (dose: 3.12 mg/kg/injection, schedule: Q01DX009 (ip), vehicle: other); 102 % of control (dose: 6.25 mg/kg/injection, schedule: Q01DX009 (ip), vehicle: other); 99 % of control (dose: 12.5 mg/kg/injection, schedule: Q01DX009 (ip), vehicle: other); 106 % of control (dose: 25.0 mg/kg/injection, schedule: Q01DX009 (ip), vehicle: other).
As to `c1ccc2c(CC3=NCCN3)noc2c1`, the T/C is, setting by setting: (dose: 12.5 mg/kg/injection, schedule: Q01DX009 (ip), vehicle: saline) 98 % of control; (dose: 25.0 mg/kg/injection, schedule: Q01DX009 (ip), vehicle: saline) 105 % of control; (dose: 50.0 mg/kg/injection, schedule: Q01DX009 (ip), vehicle: saline) 103 % of control and 107 % of control.
Consider `CCc1c(C)[nH]n(C(N)=NCCSCc2nc[nH]c2C)c1=O`, for which the T/C was 108 % of control (dose: 60.0 mg/kg/injection, schedule: Q01DX005 (ip), vehicle: Klucel (hydroxypropylcellulose) (HPC)); 100 % of control (dose: 120.0 mg/kg/injection, schedule: Q01DX005 (ip), vehicle: Klucel (hydroxypropylcellulose) (HPC)); 91 % of control (dose: 240.0 mg/kg/injection, schedule: Q01DX005 (ip), vehicle: Klucel (hydroxypropylcellulose) (HPC)).
In the case of `CC(=O)N1NC(=O)c2c([nH]c3ccccc23)C1c1ccccc1` (stereo unspecified), the T/C was 101 % of control under setting [12], 106 % of control under setting [13] and 101 % of control under setting [14].
